Measured values from patent US20190316085A1, “Methods Of T-Lymphocyte Expansion” (Cambridge Enterprise Limited, priority 2015, published 2019).

Tests used:
CD8^+ T-lymphocytes [1] = experiment: IFN-γ and IL-2 protein in media; type: cell-based, mouse; details: 0.5 mM, 24 h
Protocol: Total splenocytes were activated for 48 h with 1000 nM SIINFEKL and then expanded for a further 4 days in the presence of IL-2 followed by treatment 0.5 mM of S-2HG-octyl R-2HG-octyl ester ester for 24 h. OT-I CD8^+ T-lymphocytes were incubated with target and control cells for 4 hours. n=3 mice per condition. […] Cells were activated for 48 h with αCD3+αCD28 antibodies and then expanded for a further 4 days in the presence of IL-2 followed by treatment with the indicated concentration of S-2HG-octyl ester or R-2HG-octyl ester for 24 hours. n≥16 mice.
CD8^+ T-cells were expanded for 4 days and then treated for 16 h with S-2HG octyl ester or R-2HG octyl ester. Glucose and lactate levels in culture medium were measured with a Dade-Behring Dimension RXL analyser. Changes in metabolite concentrations relative to fresh media were normalized to viable cell counts. VEGF, IL-2 and IFN-γ protein levels in media were determined using the following kits from MesoScale Discovery: K150BMC-2 for VEGF, K15048D-2 for IFN-γ and K152QQD-2 for IL-2. Values were normalized to viable cell counts.

CD8^+ T-lymphocytes [2] = experiment: qRT-PCR of differentiation, memory and pluripotency associated genes; type: cell-based, mouse; details: 0.5 mM; for transcript levels of Eomes, acute treatment: 24 h; for expression of pluripotency associated genes (Oct3/4, Sox2, Nanog, Klf4): with IL2; for Il2 and Ifng mRNA expression: 24 h or 7 days; for Eomes expression levels after continuous treatment: 7 days
Protocol: FIGS. 8E, 8F and 8G show expression of II2(8E), Ifng (8F), and Eomes (8G) mRNA in CD8^+ T-lymphocytes activated for 48 h with αCD3+αCD28 antibodies and then expanded for a further 2 days in the presence of IL-2. Cells were then treated for either 24 h or 7 days with or without 0.5 mM S-2HG-octyl ester or R-2HG-octyl ester. n≥4 mice per group.
Activated CD8^+ T-lymphocytes were treated with 0.5 mM of either S-2HG-octyl ester or R-2HG-octyl ester for 1 day or 7 days in the presence of IL2. The induction seen with R-2HG-octyl ester is weaker than with S-2HG-octyl ester. Each dot represents an individual donor mouse, n=4 mice. error bars denote the s.d.
RNA was isolated using the RNeasy kit (Qiagen). 1 μg of RNA was used for cDNA synthesis with the First-Strand Synthesis kit (Invitrogen). All samples were run in technical triplicates using a StepOnePlus system (Applied Biosystems) with SYBR green.

CD8^+ T-lymphocytes [3] = experiment: Flow cytometry of CD44 and CD62L surface expression; type: cell-based, mouse; details: for CD62L effect when treating CD62L^low CD44^high effector cells: 0.5 mM added after 7 days of vehicle; for reversibility of the CD62L effect upon withdrawal of treatment: 0.5 mM for 7 days then washout, followed 9 more days; for formation of a CD62L^high CD44^high population / effect on CD62L when HIF-1α is absent / CD62L downregulation in HIF-2a null cells: 0.5 mM; for formation of a CD62L^high CD44^high population: with IL-2, antigen specific (OT-I) and polyclonal CD8+ T-lymphocytes; for effect on CD62L when HIF-1α is absent: Hif1α^−/− CD8+ T-lymphocytes; for CD62L downregulation in HIF-2a null cells: Hif2α^−/− CD8+ T-lymphocytes, versus wild type controls
Description: Data are representative of n=4 individual mice.
Data are representative of 3 mice per genotype.
Data are representative of 2 mice per genotype.
Data are representative of n=3 individual mice.
Cells were stained and acquired on a Fortessa (BD Biosciences). […] For staining of nuclear-located marker Eomes, the Transcription Factor Staining Buffer Set (eBioscience) was used, according to the manufacturer's instructions. For staining of intracellular cytokines, OT-I cells were re-stimulated with […] peptide for 4 h with GolgiStop solution (BD). For ^1H-NMR experiments, CD8^+ T-lymphocytes were sorted from total splenocytes by immunostaining with anti-mouse CD8-AF647 (Biolegend) on a MoFlo (Beckman Coulter). Cells were then activated and cultured as described above.

[4] = tested on: OT-I CD8^+CD45.1^+ T-lymphocytes; experiment: In vivo memory recall experiment (adoptive transfer, vaccination); design: species or system mouse; details: for formation of memory cells after in vitro treatment of CD8+ T-cells: 0.5 mM, 7 days with IL-2 (FIGS. 13, 16, 17); for in vivo recall in response to vaccination: cells pre-treated 7 days with 0.5 mM, 37 days after adoptive transfer
Protocol: FIGS. 13B and 13C show representative flow cytometry plots of (B) CD8^+CD45.1^+ (C) or Kb/SIINFEKL Pentamer^+CD45.1^+ T-lymphocytes, in the spleens of vaccinated litter mate CD45.2 mice, 37 days after adoptive transfer of SIINFEKL-activated OT-I CD8^+CD45.1^+ T-lymphocytes, expanded with 0.5 mM S-2HG-octyl ester, 0.5 mM R-2HG-octyl ester or vehicle in the presence of IL-2 for 7 days. FIGS. 13D-F show (13D) the number of recovered CD45.1^+CD8^+ T-lymphocytes per spleen and (13E) % CD45.1^+ cells of the total CD8^+ population in each spleen or (13F) number of recovered Kb/SIINFEKL Pentamer^+CD45.1^+ T-lymphocytes per spleen 7 days after vaccination (37 days after the CD8+ T-cells were transferred into the mice). n=6 mice per group and error bars denote the s.e.m.
Total splenocytes from OT-1 CD45.1^+ mice were activated with 1000 nM SIINFEKL peptide in the presence of IL-2 and vehicle, 0.5 mM S-2HG-octyl ester or 0.5 mM R-2HG-octyl ester for 7 days. 1 million CD45^+CD8^+ cells were then injected intravenously into C57/B6 wild type CD45.2^+ host mice. 30 days later, host mice were vaccinated i.p. with SIINFEKL-loaded dendritic cells. 7 days later, spleens were harvested from host mice and the presence of CD45.1^+CD8^+ and Kb/SIINFEKL Pentamer+cells was determined by flow cytometry. Absolute numbers of cells were determined with the use of counting beads (CountBright, Life Technologies). Dendritic cells were prepared from bone marrow extracted from wild type C57/B6 mice. Bone marrow derived cells were cultured in non-TC treated petri dishes in RPMI-1640 medium containing 2 mM glutamine, 10% FBS, 25 mM HEPES, pH 7.2, 1% penicillin-streptomycin, 55 μM […] supplemented 20 ng/ml mGM-CSF (R&D Systems). After 8 days of culture, dendritic cells were activated with 1 μg/ml LPS (Sigma) for 24 h. The maturation of dendritic cells was confirmed by flow cytometry using the following markers: MHC class II-APC, CD11b-AF488, CD11c-AF488 and CD86-PE/Cy7 (Biolegend). Mature dendritic cells were then loaded with 2 μM SIINFEKL peptide at 37° C. for 1 hour. After peptide loading, dendritic cells were detached with 3 mM EDTA in PBS for 5-10 min at 37° C. and washed with PBS. For vaccination, 1 million peptide-loaded dendritic cells were injected i.p. per mouse in 100 μl PBS.

Compound | production of interleukin-2 (IL-2) (CD8^+ T-lymphocytes [1]) | secretion of interferon-γ (IFN-γ) (CD8^+ T-lymphocytes [1]) | expression of memory associated transcripts (including Ccr7) (CD8^+ T-lymphocytes [2]) | transcript levels of Eomes, acute treatment (CD8^+ T-lymphocytes [2]) | induction of pluripotency associated genes compared with S-2HG-octyl ester (CD8^+ T-lymphocytes [2]; 1 day or 7 days) | expression of pluripotency associated genes (Oct3/4, Sox2, Nanog, Klf4) (CD8^+ T-lymphocytes [2]; 1 day or 7 days) | Il2 and Ifng mRNA expression (CD8^+ T-lymphocytes [2]) | Eomes expression levels after continuous treatment (CD8^+ T-lymphocytes [2]) | CD62L effect when treating CD62L^low CD44^high effector cells (CD8^+ T-lymphocytes [3]) | reversibility of the CD62L effect upon withdrawal of treatment (CD8^+ T-lymphocytes [3]) | formation of a CD62L^high CD44^high population (CD8^+ T-lymphocytes [3]) | effect on CD62L when HIF-1α is absent (CD8^+ T-lymphocytes [3]) | CD62L downregulation in HIF-2a null cells (CD8^+ T-lymphocytes [3]) | formation of memory cells after in vitro treatment of CD8+ T-cells [4] | in vivo recall in response to vaccination [4]
CCCCCCCCOC(=O)[C@H](O)CCC(=O)O [R-2HG-octyl ester] | increased | decreased | increased | represses | weaker | induces the expression | mediated at the transcriptional level | higher expression levels | does not occur | reversible | promotes the formation | masks the effects | inhibits CD62L downregulation | induces the formation | enhanced in vivo recall
CCCCCCCCOC(=O)[C@@H](O)CCC(=O)O [S-2HG-octyl ester, S-2HG octyl ester] | increased | decreased | increased | represses |  | induces the expression | mediated at the transcriptional level | higher expression levels | does not occur | reversible | promotes the formation | masks the effects | inhibits CD62L downregulation | induces the formation | enhanced in vivo recall
